Data: PMC12808100, “The non-catalytic DNA polymerase ε subunit is an NPF motif recognition protein” (Nature Communications, 2025)
Residues, ends and D or L forms follow the SMILES beside them.

Columns and labels:
POLE = assay: Titration nHU, Western blot, endogenous POLE in Jurkat extract; type: binding, human; conditions: for binding to endogenous POLE: titration nHU with peptide bait, Western blot; for Kd: source data of Fig 5, titration nHU, Jurkat extract, unit inferred
Excerpt: (§1) To identify the partners of NPF motifs, we used the native holdup (nHU) assay that was recently developed by our team (Fig. 1B). The holdup approach has been extensively used to determine equilibrium dissociation constants of transient interactions mediated by PDZ and SH3 domains, 14-3-3, and human papilloma virus E6 proteins, and even nucleic acid-protein interactions[7],[30]–[35]. In the nHU experiments, a purified bait molecule, or a control compound, is immobilized on a resin at high concentration (typically 10 μM, or higher) and these resin stocks are subsequently mixed with dilute cell extracts. After a relatively long incubation, i.e., 2 h at 4 °C, the liquid phase is separated by centrifugation. This liquid phase contains the unbound prey molecules at near binding equilibrium that can be quantified using selective and quantitative analytical approaches, such as mass spectrometry. Therefore, proteins that interact with the bait molecule will appear to be depleted in the solvent phase and by measuring its relative concentration compared to the control nHU experiment, the degree of binding (θ) can be determined that can be converted to apparent steady-state dissociation constants, according to:1 θ=1−Ifree/Itot=Cbait/Cbait+Kapp where Itot and Ifree are the measured total and bait-depleted equilibrium mass spectrometry total ion intensities of prey proteins, Cbait is the bait molecule concentration and Kapp is the apparent dissociation constant.
(§2) Jurkat E6.1 cells (ECACC #88042803, RRID: CVCL_0367) were grown in RPMI (Gibco) medium completed with 10% FBS (Gibco BRL) and 40 μg/ml gentamicin (Gibco/Life Technology). To prepare total cell extracts, Jurkat cells were seeded onto T-175 flasks and grew until 3 × 10^6 cells/ml confluency. Cells were collected by 1000 g x 5 min centrifugation, washed with PBS and then lysed in ice-cold lysis buffer (Hepes-KOH pH 7.5 50 mM, NaCl 150 mM, Triton X-100 1%, cOmplete EDTA-free protease inhibitor cocktail 5x, TCEP 5 mM, glycerol 10%).
(§3) Cell suspensions were sonicated 4×20 sec with 1 sec long pulse on ice, then incubated rotating at 4 °C for 30 min. The lysates were centrifuged at 12,000 rpm 4 °C for 20 min and supernatant was kept. Total protein concentration was measured by standard Bradford method (Bio-Rad Protein Assay Dye Reagent #5000006) using a BSA calibration curve (MP Biomedicals #160069, diluted in lysis buffer) on a Bio-Rad SmartSpec 3000 spectrophotometer instrument.
(§4) Titration holdup experiments were carried out as described above using 25 μl saturated resins prepared. Briefly, we mixed control, or bait-saturated resins at various proportions by keeping the total resin amount and resin-analyte ratio constant during the experiment (for 25 μl we used 100 μl cell extract as analyte). In titration experiments with protein baits, bait concentration was determined as described above for the saturated resin stocks. Experiments were carried out at 4 °C for 2 h and recovered supernatants were subjected to western blot or dot blot analysis.
(§5) For Western blot, samples were mixed with 4x Laemmli Sample Buffer in 3:1 ratio. Equal amounts of samples were loaded on 6-10% acrylamide-gels (generally 16 μg). Transfer was done into PVDF membranes using a Trans-Blot Turbo Transfer System and Trans-Blot Turbo RTA Transfer Kit (BioRad, #1704275). For Dot blot, nHU samples were directly loaded on Nitrocellulose membranes using 48 Sample vacuum manifold (Cleaver Scientific) following the manufacturer’s recommendations.
After 1 h of blocking in 5% milk, membranes were incubated overnight at 4 °C with primary antibodies in 5% milk-TBS-Tween.

EPS15 = molecular target: T1, EPS15 (Homo sapiens, UniProt P42566); assay: Titration nHU, Western blot, endogenous EPS15 in Jurkat extract; type: binding; conditions: source data of Fig 5, titration nHU, unit inferred
T1 construct: endogenous in cells; host or cells: Jurkat E6.1
T1 sequence (P42566 1-896): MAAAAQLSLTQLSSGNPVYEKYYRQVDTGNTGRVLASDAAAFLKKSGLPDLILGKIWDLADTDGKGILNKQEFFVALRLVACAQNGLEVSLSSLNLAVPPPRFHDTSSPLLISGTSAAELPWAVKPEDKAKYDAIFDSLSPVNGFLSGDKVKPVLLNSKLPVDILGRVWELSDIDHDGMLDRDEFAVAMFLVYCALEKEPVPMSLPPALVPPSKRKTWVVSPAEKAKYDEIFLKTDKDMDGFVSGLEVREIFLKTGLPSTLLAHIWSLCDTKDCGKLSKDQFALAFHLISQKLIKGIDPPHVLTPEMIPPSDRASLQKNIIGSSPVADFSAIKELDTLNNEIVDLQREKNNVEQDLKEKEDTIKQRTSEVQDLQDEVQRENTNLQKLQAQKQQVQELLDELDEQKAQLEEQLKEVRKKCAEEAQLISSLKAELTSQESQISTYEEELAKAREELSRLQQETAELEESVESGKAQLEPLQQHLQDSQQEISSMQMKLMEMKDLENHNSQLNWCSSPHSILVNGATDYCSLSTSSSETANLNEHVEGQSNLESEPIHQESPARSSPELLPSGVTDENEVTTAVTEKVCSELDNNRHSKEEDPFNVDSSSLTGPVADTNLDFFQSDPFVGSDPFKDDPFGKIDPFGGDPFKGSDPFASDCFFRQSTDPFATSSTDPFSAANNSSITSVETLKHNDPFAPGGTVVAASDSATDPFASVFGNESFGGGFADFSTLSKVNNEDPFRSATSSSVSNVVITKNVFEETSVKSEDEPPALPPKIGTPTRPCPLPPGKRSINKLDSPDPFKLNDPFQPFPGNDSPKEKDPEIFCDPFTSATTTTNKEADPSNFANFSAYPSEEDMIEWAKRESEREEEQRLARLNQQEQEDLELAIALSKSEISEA
Excerpt: as §1, §2, §3, §4
as §5, with “recommendations. […]” for “recommendations.”

Row | Compound | binding to endogenous POLE (POLE; listed as NPF motif of ERCC6L) | Kd (EPS15) | Kd (POLE) | binding to endogenous POLE (POLE; listed as CLSPN) | binding to endogenous POLE (POLE; listed as Claspin)
1 | RRIVSDGEDEDDSFKDTSSINPFNTSLFQFSSVKQFDAS [ERCC6L 1024-1062, biotinylated NPF motif peptide of ERCC6L] | No apparent binding |  |  |  | 
2 | C[C@H](NC(=O)[C@H](C)NC(=O)[C@@H]1CCCN1C(=O)CNC(=O)CCCCCNC(=O)CCCC[C@@H]1SC[C@@H]2NC(=O)N[C@@H]21)C(=O)N[C@@H](C)C(=O)N[C@@H](CCCNC(=N)N)C(=O)N[C@@H](CCCNC(=N)N)C(=O)N[C@@H](CC(N)=O)C(=O)N1CCC[C@H]1C(=O)N[C@@H](Cc1ccccc1)C(=O)N[C@@H](CO)C(=O)N[C@@H](CC(=O)O)C(=O)N[C@@H](CCCNC(=N)N)C(=O)N[C@@H](CC(=O)O)C(=O)N[C@@H](CC(N)=O)C(=O)N[C@@H](CCCNC(=N)N)C(=O)N1CCC[C@H]1C(=O)N[C@@H](CCCNC(=N)N)C(N)=O [DONSON_SYNJ1_C] (HELM PEPTIDE1{[O=C1N[C@H]2[C@H](CS[C@H]2CCCCC(=O)[*:2])N1].[O=C(CCCCCN[*:1])[*:2]].G.P.A.A.A.R.R.N.P.F.S.D.R.D.N.R.P.R.[am]}$$$$V2.0) |  | > 20 µM | 8.5 µM |  | 
3 | C[C@H](NC(=O)[C@H](C)NC(=O)[C@@H]1CCCN1C(=O)CNC(=O)CCCCCNC(=O)CCCC[C@@H]1SC[C@@H]2NC(=O)N[C@@H]21)C(=O)N[C@H](C(=O)N[C@@H](CCCNC(=N)N)C(=O)N[C@H](C(=O)N[C@@H](CC(N)=O)C(=O)N1CCC[C@H]1C(=O)N[C@@H](Cc1ccccc1)C(=O)N[C@@H](CO)C(=O)N[C@@H](CC(=O)O)C(=O)N[C@@H](CCCNC(=N)N)C(=O)N[C@@H](CC(=O)O)C(=O)N[C@@H](CC(N)=O)C(=O)N[C@@H](CCCNC(=N)N)C(=O)N1CCC[C@H]1C(=O)N[C@@H](CCCNC(=N)N)C(N)=O)[C@@H](C)O)[C@@H](C)O [DONSON_SYNJ1_NC] (HELM PEPTIDE1{[O=C1N[C@H]2[C@H](CS[C@H]2CCCCC(=O)[*:2])N1].[O=C(CCCCCN[*:1])[*:2]].G.P.A.A.T.R.T.N.P.F.S.D.R.D.N.R.P.R.[am]}$$$$V2.0) |  | > 200 µM | > 200 µM |  | 
4 | CC(C)C[C@H](NC(=O)[C@H](CCCNC(=N)N)NC(=O)[C@H](C)NC(=O)[C@H](Cc1ccccc1)NC(=O)[C@@H]1CCCN1C(=O)[C@H](CC(N)=O)NC(=O)[C@@H](NC(=O)[C@H](CCCNC(=N)N)NC(=O)[C@@H](NC(=O)[C@H](C)NC(=O)[C@H](C)NC(=O)[C@@H]1CCCN1C(=O)CNC(=O)CCCCCNC(=O)CCCC[C@@H]1SC[C@@H]2NC(=O)N[C@@H]21)[C@@H](C)O)[C@@H](C)O)C(=O)N[C@@H](CC(=O)O)C(=O)N[C@@H](CC(N)=O)C(=O)N[C@@H](CCCNC(=N)N)C(=O)N1CCC[C@H]1C(=O)N[C@@H](CCCNC(=N)N)C(N)=O [DONSON_SYNJ1_N] (HELM PEPTIDE1{[O=C1N[C@H]2[C@H](CS[C@H]2CCCCC(=O)[*:2])N1].[O=C(CCCCCN[*:1])[*:2]].G.P.A.A.T.R.T.N.P.F.A.R.L.D.N.R.P.R.[am]}$$$$V2.0) |  | > 30 µM | 9.4 µM |  | 
5 | CC(C)C[C@H](NC(=O)[C@H](CCCNC(=N)N)NC(=O)[C@H](C)NC(=O)[C@H](Cc1ccccc1)NC(=O)[C@@H]1CCCN1C(=O)[C@H](CC(N)=O)NC(=O)[C@H](CCCNC(=N)N)NC(=O)[C@H](CCCNC(=N)N)NC(=O)[C@H](C)NC(=O)[C@H](C)NC(=O)[C@H](CC(=O)O)NC(=O)[C@H](CC(C)C)NC(=O)[C@H](CCCNC(=N)N)NC(=O)[C@H](C)NC(=O)[C@H](Cc1ccccc1)NC(=O)[C@@H]1CCCN1C(=O)[C@H](CC(N)=O)NC(=O)[C@H](CCCNC(=N)N)NC(=O)[C@H](CCCNC(=N)N)NC(=O)[C@H](C)NC(=O)[C@H](CC(=O)O)NC(=O)[C@H](CC(C)C)NC(=O)[C@H](CCCNC(=N)N)NC(=O)[C@H](C)NC(=O)[C@H](Cc1ccccc1)NC(=O)[C@@H]1CCCN1C(=O)[C@H](CC(N)=O)NC(=O)[C@H](CCCNC(=N)N)NC(=O)[C@H](CCCNC(=N)N)NC(=O)[C@H](C)NC(=O)[C@H](C)NC(=O)CCCCCNC(=O)CCCC[C@@H]1SC[C@@H]2NC(=O)N[C@@H]21)C(=O)N[C@@H](CC(=O)O)C(N)=O [3xDONSON] (HELM PEPTIDE1{[O=C1N[C@H]2[C@H](CS[C@H]2CCCCC(=O)[*:2])N1].[O=C(CCCCCN[*:1])[*:2]].A.A.R.R.N.P.F.A.R.L.D.A.R.R.N.P.F.A.R.L.D.A.A.R.R.N.P.F.A.R.L.D.[am]}$$$$V2.0) |  | 0.8 µM | 0.1 µM |  | 
6 | SRPMVIQESKSLLRNPFEAIRPGS [CLSPN 1223-1246, biotinylated NPF motif peptide of Claspin] |  |  |  | unable to bind to endogenous POLE | could not interact with POLE
